Experimental data from patent US20220073475A1, “5-MEMBERED HETEROARYL COMPOUNDS CONTAINING A HYDROXAMATE MOIETY AND THEIR USE” (UNIVERSITE DE LILLE, priority 2019, published 2022).

Key:
OPM2 cells = experiment: CFZ potency increase, ratio of CC50 of CFZ alone / with compound; type: cell-based, human
How it was run: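 OPM2 cells (12,000/well, 0.2% DMSO) treated with compound plus carfilzomib, with NucView 488 caspase-3/7 substrate (1 μM) and Hoechst 33342, 37 °C; confocal imaging over time gives % apoptotic cells. CFZ CC50 from 4-parameter fits alone and with compound; activity = CC50 alone / CC50 with compound.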

HeLa cells = experiment: as above; type: cell-based, human; details: compound at 7.5 μM
Description: Human HeLa cells (uterine cervical carcinoma) are maintained in DMEM medium supplemented with GlutaMAX™, 10% fetal bovine serum and 1% penicillin-streptomycin.
(§1) We developed a cell-based, high content assay allowing the rapid detection and quantification of apoptotic cells. Caspase-3/7 activity was detected in real-time using the NucView™ 488 Caspase-3 substrate (Biotium), where the caspase-3/7 substrate peptide sequence DEVD is attached to a nucleic acid dye. The NucView™ 488 reagent crosses the plasma membrane to enter the cytoplasm, where the dye is unable to bind to DNA and remains non-fluorescent. Once the substrate has been cleaved by activated caspase-3/7 in apoptotic cells, the high-affinity DNA dye is released and migrates to the cell nucleus to stain the nucleus with a bright green fluorescence. All cell nuclei were also labeled with Hoechst 33342 (Ozyme).
(§2) For HeLa and MCF7 cells, briefly, cells were seeded in 384-microtiter well plate (1500 HeLa cells or 5000 MCF7 cells in 40 μL full medium per well) and let to attach overnight. Then the compound of the invention and the RE stressor were transferred to the cell culture plate using an Echo555 liquid handler (Labcyte) and 30 μL medium containing NucView™ and Hoechst 33342 were added. Final NucView™ 488 and Hoechst 33342 concentrations were 1 μM and 20 ng/mL, respectively. DMSO content was maintained at 0.2%. The microplates were incubated at 37° C. and 5% CO2 in an automated LiCONiC STR240 UB cell incubator, and images were acquired at various times at 405 nm and 488 nm with the high-resolution automated confocal microscope INCell 6000 (GE). Four fields per well were read with the 20× objective in a confocal mode. The BioCel workstation was managed by VWorks automation control software (Agilent).
(§3) For all cells, Columbus software (Perkin) was used for image quantification and analysis. First, Hoechst 33342 staining was used for an automated detection of nuclei, in which the mean fluorescence intensity for NucView™ 488 was quantified. Inspection of control cells at initial time was used to set a threshold level of NucView™ 488 fluorescence to separate non apoptotic cells from apoptotic cells. Finally, for each well, the result was expressed as percentage of apoptotic cells in the total cell population. CC50 values were calculated from concentration-response curves by a nonlinear regression analysis at four parameters using Excel Fit or GraphPad Prim softwares.
(§4) Activity=(% of apoptotic cells with cytotoxic agent in combination with compound of the invention)/(% of apoptotic cells with cytotoxic agent alone). • Ratio of CC50: The CC50 of the cytotoxic agent was calculated in absence and in presence of a compound of the invention.
(§5) Activity=(CC50 of agent alone)/(CC50 of agent with compound). • Ratio of AUC. Activity=(Area of the dose-concentration curve of cytotoxic agent combined with one concentration of compound)/(Area of the dose-concentration curve of cytotoxic agent alone). (Lehar J. et al, 2008 (molecular systems biology 4:215)).

MCF7 cells = experiment: as above; type: cell-based, human; details: MCF7, compound at 15 μM
Protocol: Human epithelial MCF7 cells (mammary gland adenocarcinoma) are maintained in EMEM medium supplemented with GlutaMAX™, 10% fetal bovine serum, 0.01 mg insulin and 1% penicillin-streptomycin.
as §1, §2, §3, §4, §5

[1] = OPM2, compound at 7.5 μM (Table 5)
[2] = OPM2, compound at 7.5 μM (Table 6)

Compound	Activity: ratio (CC50 of CFZ alone)/(CC50 of CFZ in combination with compound of the invention) (OPM2 cells; [1])	Activity: ratio (CC50 of CFZ alone)/(CC50 of CFZ in combination with compound of the invention) (OPM2 cells; [2])	Activity: ratio (CC50 of CFZ alone)/(CC50 of CFZ in combination with compound of the invention) (HeLa cells)	Activity: ratio (CC50 of CFZ alone)/(CC50 of CFZ in combination with compound of the invention) (MCF7 cells)	melting point
CC(NC(=O)c1ccc(F)c(F)c1)c1cn([C@@H](CC(=O)NO)Cc2ccc3ccccc3c2)nn1 (stereo in doubt) [Compound 86, 3,4-Difluoro-N-{1-[1-(1(R)-hydroxycarbamoylmethyl-2-naphthalen-2-yl-ethyl)-1H-[1,2,3]triazol-4-yl]-(R)-ethyl}-benzamide]	1.7	1.7	2.6	1.7	–
O=C(C[C@@H](Cc1ccc2ccccc2c1)n1cc(CNC(=O)c2ccccc2)nn1)NO [Compound 1, N-[1-((R)-2-Hydroxycarbamoyl-1-naphthalen-2-ylmethyl-ethyl)-1H-[1,2,3]triazol-4-ylmethyl]-benzamide]	–	–	–	–	192.8 to 194 °C
COc1ccc(C(=O)NCc2cn([C@@H](CC(=O)NO)Cc3ccc4ccccc4c3)nn2)cc1 [Compound 2]	–	–	–	–	178.3 to 179.6 °C
O=C(C[C@@H](Cc1ccc2ccccc2c1)n1cc(CNC(=O)c2ccc(C(F)(F)F)cc2)nn1)NO [Compound 4, N-[1-(R-2-Hydroxycarbamoyl-1-naphthalen-2-ylmethyl-ethyl)-1H-[1,2,3]triazol-4-ylmethyl]-4-trifluoromethyl-benzamide]	–	–	–	–	198.9 to 200.4 °C
Cc1ccc(S(=O)(=O)NCc2cn([C@@H](CC(=O)NO)Cc3ccc4ccccc4c3)nn2)cc1 [Compound 5, (R)—N-Hydroxy-4-naphthalen-2-yl-3-{4-[(toluene-4-sulfonylamino)-methyl]-[1,2,3]triazol-1-yl}-butyramide]	–	–	–	–	115.8 to 117.2 °C
O=C(C[C@@H](Cc1ccc2ccccc2c1)n1cc(CNS(=O)(=O)c2ccccc2)nn1)NO [Compound 7, (R)-3-[4-(Benzenesulfonylamino-methyl)-[1,2,3]triazol-1-yl]-N-hydroxy-4-naphthalen-2-yl-butyramide]	–	–	–	–	137.4 to 138.8 °C
O=C(C[C@@H](Cc1ccc2ccccc2c1)n1cc(CNC(=O)CCc2ccccc2)nn1)NO [Compound 10, (R)—N-Hydroxy-4-naphthalen-2-yl-3-{4-[(3-phenyl-propionylamino)-methyl]-[1,2,3]triazol-1-yl}-butyramide]	–	–	–	–	150 to 151.4 °C
O=C(C[C@@H](Cc1ccc2ccccc2c1)n1nncc1CNC(=O)c1ccccc1)NO [Compound 12, (R)—N-[3-(1-Hydroxycarbamoylmethyl-2-naphthalen-2-yl-ethyl)-3H-[1,2,3]triazol-4-ylmethyl]-benzamide]	1.2	1.2	2.4	1.6	–
CC(C)C[C@H](NCc1cn([C@@H](CC(=O)NO)Cc2ccc3ccccc3c2)nn1)C(=O)OC(C)(C)C [Compound 20]	2.1	2.1	6.3	3.4	–
O=C(CC(Cc1ccc2ccccc2c1)c1nc(CNC(=O)c2ccc(F)cc2)no1)NO (centres unmarked) [Compound 27, 4-fluoro-N-[5-(1-hydroxycarbamoylmethyl-2-naphthalen-2-yl-ethyl)-[1,2,4]oxadiazol-3-ylmethyl]-benzamide]	2.4	2.4	3.0	2.8	–
O=C(C[C@@H](Cc1ccc(-c2ccccc2)cc1)n1cc(CNC(=O)c2ccc(F)cc2)nn1)NO [Compound 32, (R)—N-[1-(1-biphenyl-4-ylmethyl-2-hydroxycarbamoyl-ethyl)-1H-[1,2,3]triazol-4-ylmethyl]-4-fluoro-benzamide]	1.9	1.9	4.5	2.7	–
O=C(NCc1cn([C@H](Cc2ccc3ccccc3c2)C(=O)NO)nn1)c1ccc(F)cc1 [Compound 43, (R)-4-Fluoro-N-[1-(1-hydroxycarbamoyl-2-naphthalen-2-yl-ethyl)-1H-[1,2,3]triazol-4-ylmethyl]-benzamide]	1.7	1.7	2.6	2.6	–
O=C(C[C@@H](Cc1ccc2ccccc2c1)n1cc(CNC(=O)c2ccc(F)c(F)c2)nn1)NO [Compound 54, 3,4-difluoro-N-[[1-[(1R)-3-(hydroxyamino)-1-(2-naphthylmethyl)-3-oxo-propyl]triazol-4-yl]methyl]benzamide]	1.8	1.8	2.3	2.2	–
O=C(C[C@@H](Cc1ccc2ccccc2c1)n1cc(CC(=O)Nc2ccc(F)cc2)nn1)NO [Compound 58, 3-{4-[(4-Fluoro-phenylcarbamoyl)-methyl]-[1,2,3]triazol-1-yl}-N-hydroxy-4-naphthalen-2-yl-butyramide]	1.4	1.4	2.7	2.0	–
O=C(C[C@@H](Cc1ccc2ccccc2c1)n1cc(CNC(=O)c2ccc(F)c(Cl)c2)nn1)NO [Compound 62, 3-chloro-4-fluoro-N-[[1-[(1R)-3-(hydroxyamino)-1-(2-naphthylmethyl)-3-oxo-propyl]triazol-4-yl]methyl]benzamide]	1.6	1.6	3.0	2.6	–
O=C(C[C@@H](C/C=C/c1ccccc1)n1cc(CNC(=O)c2ccc(F)c(F)c2)nn1)NO [Compound 75, 3,4-difluoro-N-[[1-[(E,1R)-1-[2-(hydroxyamino)-2-oxo-ethyl]-4-phenyl-but-3-enyl]triazol-4-yl]methyl]benzamide]	1.7	1.7	4.3	2.1	–
O=C(C[C@@H](Cc1ccc2ccccc2c1)n1cc(CCC(=O)Nc2ccc(F)c(F)c2)nn1)NO [Compound 81, N-(3,4-difluorophenyl)-3-[1-[3-(hydroxyamino)-1-(2-naphthylmethyl)-3-oxo-propyl]triazol-4-yl]propanamide]	2.3	2.3	3.5	2.5	–
